PMC11209715, “A novel selenium analog of HDACi-based twin drug induces apoptosis and cell cycle arrest via CDC25A to improve prostate cancer therapy” (Theranostics, 2024)

Experiments:
PC3 cells [1] = test: CCK-8 cell viability assay, PC3; format: cell-based; conditions: Homo sapiens, PC-3, Figure 2B and text
Experimental: (§1) Human cancer cell lines (PC3, DU145, A549, H1299, MDA-MB-231, HepG2, PANC-1, MIA PaCa-2, HT-29, HCT116, and HeLa) were obtained from the Cell Resource Center, Peking Union Medical College (National Infrastructure of Cell Line Resource, NSTI). These cell lines were cultured according to NSTI culture guidelines and cultured in RPMI 1640 medium (Biological Industries, Israel) supplemented with 10% heat-inactivated fetal bovine serum (FBS; BI; Israel), penicillin/streptomycin (P/S; 100 IU/ml; Gibco, 10378016) in an incubator at 37 °C and 5% CO2.
(§2) Cell cytotoxicity assays were performed in 96-well plates (NEST) to determine the growth kinetics of SeSA-DCA-treated cells using CCK-8 reagent (Shandong Sparkjade Biotechnology Co., Ltd., CT0001-B). Cells (5000 cells/well) were treated with DMSO or different drugs. Each treatment was performed in five replicates. To assess cell growth, 10 μL of CCK-8 reagent was introduced to every well and allowed to incubate for 4 h. Following that, the absorbance value for each well was measured at 450 nm. Every experiment was duplicated no less than thrice.

[2] = Drug toxicity test: blood biochemistry in nude mice; format: in vivo; design: TBIL / BUN: unit not given here; conditions: serum of nude mice; for ALT: dose (DCA 100, SAHA 20, SeSAHA 20, Docetaxel 10, SeSA-DCA 20 mg/kg); for ALT / ALP / AST: in U/L (unit assumed); for ALB / GLOB / TP: in g/L (unit assumed)
Experimental: Blood samples from each mouse were kept at room temperature for 3 h and centrifuged at 8000 rpm for 15 min to produce serum. The samples were then placed on the blood routine detector for biochemical analysis.

HDAC = test: Inhibitory activity of SeSAHA compared with SAHA (data not shown); conditions: preliminary results
HT-29 = test: CCK-8 cell viability assay, HT-29; format: cell-based; conditions: Homo sapiens, Figure 2A
Experimental: as §1, §2

PC3 cells [3] = test: RNA-sequencing and GSEA of treated PC3 cells; format: cell-based, Human; conditions: 48 h
Experimental: PC3 cells were seeded at a density of 5 × 10^6 cells/flask in two 75 cm^2 flasks. Treatment with drugs for 48 h was performed in one flask, whereas the other was used as a control. Total RNA was isolated using TRIZOL, and the total RNA was extracted from the sample with RNA extraction kit (Accurate Biotechnology (Hunan) Co., Ltd. ChangSha, China). DNA was digested with DNase (GenScript, E00053). Magnetic beads with Oligo (dT) were used to enrich eukaryotic mRNA, and cDNA library construction and sequencing were performed on the Illumina HiSeq Xten platform. After quality inspection, raw data (raw reads) were processed using Trimmomatic. Reads containing ploy-N and low-quality reads were removed to obtain clean reads. The clean reads were then mapped to the reference genome using HISAT2. The FPKM value of each gene was calculated using cufflinks, and the read counts of each gene were obtained by htseq-count. DEGs were identified using DESeq. […] Hierarchical cluster analysis of DEGs was performed to explore the gene expression patterns. KEGG pathway enrichment analysis and PPI and IPA analyses of the DEGs were performed.
GSEA was conducted using GSEA software.

[4] = versus DMSO, adjusted p-value < 0.05, |log2foldchange| > 1

| Structure (SMILES) | IC50 (PC3 cells [1]) | A/G [2] | BUN [2] | TBIL [2] | ALT [2] | ALP [2] | AST [2] | ALB [2] | GLOB [2] | TP [2] | inhibitory effect relative to SAHA (HDAC) | IC50 (HT-29) | changes in gene expression compared with DMSO (PC3 cells [3]) | downregulated transcripts/genes (PC3 cells [3]; [4]) | upregulated transcripts/genes (PC3 cells [3]; [4]) |
| --- | --- | --- | --- | --- | --- | --- | --- | --- | --- | --- | --- | --- | --- | --- | --- |
| O=C(CCCCCC[Se][Se]CCCCCCC(=O)Nc1cccc(CO)c1)Nc1cccc(CO)c1 [SeSAHA] | > 1.8 µM | 0.4 ± 0.07 | 6.7 ± 0.7 | 0.6 ± 0.07 | 49.3 ± 6.7 | 36.5 ± 4.3 | 235.5 ± 40.3 | 15.4 ± 2.1 | 38.4 ± 1.1 | 53.7 ± 0.3 | more than 10 fold | – | – | – | – |
| O=C(CCCCCC[Se][Se]CCCCCCC(=O)Nc1cccc(COC(=O)C(Cl)Cl)c1)Nc1cccc(COC(=O)C(Cl)Cl)c1 | – | – | – | – | – | – | – | – | – | – | – | 8.71 µM | – | – | – |
| CC(=O)O[C@@]12CO[C@@H]1C[C@H](O)[C@@]1(C)C(=O)[C@H](O)C3=C(C)[C@@H](OC(=O)[C@H](O)[C@@H](NC(=O)OC(C)(C)C)c4ccccc4)C[C@@](O)([C@@H](OC(=O)c4ccccc4)[C@H]21)C3(C)C [Docetaxel, docetaxel] | – | 0.38 ± 0.04 | 9.8 ± 0.8 | 0.7 ± 0.07 | 46.4 ± 5.7 | 34.2 ± 8.2 | 251.8 ± 48.3 | 14.6 ± 0.6 | 38.3 ± 3.1 | 52.8 ± 4.1 | – | – | – | – | – |
| O=C(O)C(Cl)Cl [DCA, Dichloroacetate] | > 18000 µM | 0.36 ± 0.02 | 10.5 ± 0.88 | 0.49 ± 0.06 | 37.5 ± 4.5 | 36.2 ± 3.6 | 223.4 ± 35 | 13.45 ± 0.18 | 37.1 ± 0.22 | 51.5 ± 0.45 | – | – | minimal changes | – | – |
| O=C(CCCCCCC(=O)Nc1ccccc1)NO [SAHA, suberoylanilide hydroxamic acid] | – | – | 7.9 ± 1.5 | 0.8 ± 0.17 | 53.5 ± 5.5 | 34.3 ± 3.3 | 285.3 ± 40.6 | 15.8 ± 0.6 | 35.9 ± 3.6 | 51.7 ± 2.5 | – | – | – | 1573 | 2,024 |
